Legend:
TEAD2 YAP50-100 = TEAD2 YAP50-100 (Homo sapiens, UniProt Q15562); test: TEAD2:YAP50-100 protein-protein interaction HTRF (TR-FRET) assay; details: His-tagged TEAD YAP binding domain (aa 217-447), biotinylated YAP peptide aa 50-100; 30 min pre-incubation, 60 min at room temperature; read-out: TEAD2 YAP50-100 HTRF WuXi EC50
Method: (§1) Purified His-tagged TEAD protein (YAP Binding Domain, amino acids 217-447) is pre-incubated with Europium labelled anti-His antibody tracer (Perkin Elmer Cat #AD0110). Small molecule Inhibitors are then incubated with the TEAD-Eu protein complex for 30 minutes to allow for binding to TEAD protein. Biotinylated YAP peptide (AA's 50-100) that has been pre-incubated with streptavidin x1665 acceptor (CIS-Bio Cat #610SAXAC) is added to the compound-TEAD mix. The TEAD-YAP-inhibitor mixture is then incubated for 60 minutes at room temperature. All reactions are carried out in a polystyrene plate. After 60 minutes, the plate is read on a plate reader using TR-FRET mode with wavelengths of 665 nm/615 nm. If YAP binds to TEAD as expected, a TR-FRET signal results from the proximity of YAP and TEAD after binding. If an inhibitor such as peptide 17 (Selleckchem Cat #S8164) interferes with YAP-TEAD binding, the disruption of the YAP:TEAD interaction results in a decrease in TR-FRET signal. The potency of compounds as YAP:TEAD protein-protein interaction (PPi) inhibitors is determined by an IC50 or EC50 value generated using a non-linear four parameter curve fit.

TEAD3 YAP50-100 = TEAD3 YAP50-100 (Homo sapiens, UniProt Q99594); test: TEAD3:YAP50-100 protein-protein interaction HTRF (TR-FRET) assay; details: His-tagged TEAD YAP binding domain (aa 217-447), biotinylated YAP peptide aa 50-100; 30 min pre-incubation, 60 min at room temperature; read-out: TEAD3 YAP50-100 HTRF WuXi EC50
Sequence of TEAD3 YAP50-100 (Q99594 216-435 limits assumed): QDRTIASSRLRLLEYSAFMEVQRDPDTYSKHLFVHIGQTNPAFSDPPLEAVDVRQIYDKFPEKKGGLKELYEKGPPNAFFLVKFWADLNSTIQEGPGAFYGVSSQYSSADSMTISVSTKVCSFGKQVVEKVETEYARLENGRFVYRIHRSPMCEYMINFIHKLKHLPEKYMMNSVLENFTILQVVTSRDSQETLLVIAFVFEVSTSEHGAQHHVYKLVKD
Method: as §1

Sequence of TEAD2 YAP50-100 (Q15562 217-447): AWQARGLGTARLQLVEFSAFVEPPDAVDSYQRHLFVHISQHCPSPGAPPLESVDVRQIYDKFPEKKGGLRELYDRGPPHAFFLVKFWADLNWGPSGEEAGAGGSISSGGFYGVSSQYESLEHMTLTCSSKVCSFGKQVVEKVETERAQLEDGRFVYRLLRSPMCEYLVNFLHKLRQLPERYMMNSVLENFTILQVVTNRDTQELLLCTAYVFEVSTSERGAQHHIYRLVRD

For `CCOC(=O)c1cnn2c(=O)cc(-c3ccc(N(C)CC4CC4)cc3)[nH]c12` [Example 32, Ethyl 5-(4-((cyclopropylmethyl)(methyl)amino)phenyl)-7-oxo-4,7-dihydro pyrazolo[1,5-a]pyrimidine-3-carboxylate], which EC50 (TEAD2 YAP50-100) is on record?
The EC50 was 3700 nM.

And the EC50 (TEAD3 YAP50-100)?
Its EC50 is 175 nM.

With `O=C(c1cnn2c(=O)cc(-c3ccc(C4CCCCC4)cc3)[nH]c12)N1CC(CF)C1` [Example 41, 5-(4-Cyclohexylphenyl)-3-(3-(fluoromethyl)azetidine-1-carbonyl)pyrazolo[1,5-a]pyrimidin-7(4H)-one] as the molecule, how does the EC50 (TEAD2 YAP50-100) read?
The EC50 was 4.5 nM.

And the EC50 (TEAD3 YAP50-100)?
Its EC50 is 10 nM.

What does the source list for `CC1(O)CN(C(=O)c2cnn3c(=O)cc(-c4ccc(C5CCCCC5)cc4)[nH]c23)C1` [Example 9, 5-(4-Cyclohexylphenyl)-3-(3-hydroxy-3-methylazetidine-1-carbonyl)pyrazolo[1,5-a]pyrimidin-7(4H)-one]?
EC50 (TEAD2 YAP50-100): 333 nM; EC50 (TEAD3 YAP50-100): 1300 nM

Which EC50 (TEAD2 YAP50-100) does the source give for `N#C[C@@H]1CCN(C(=O)c2cnn3c(=O)cc(-c4ccc(C5CCCCC5)cc4)[nH]c23)C1` [Example 37, (R)-1-(5-(4-Cyclohexylphenyl)-7-oxo-4,7-dihydropyrazolo[1,5-a]pyrimidine-3-carbonyl)pyrrolidine-3-carbonitrile] here?
The EC50 was 8.79 nM.

And the EC50 (TEAD3 YAP50-100)?
Its EC50 is 52.2 nM.

With `O=C(c1cnn2c(=O)cc(-c3ccc(C4CCCCC4)cc3)[nH]c12)N1CC(C(F)(F)F)C1` [Example 39, 5-(4-Cyclohexylphenyl)-3-(3-(trifluoromethyl)azetidine-1-carbonyl)pyrazolo[1,5-a]pyrimidin-7(4H)-one] as the molecule, how does the EC50 (TEAD2 YAP50-100) read?
Its EC50 is 295 nM.

What about the EC50 (TEAD3 YAP50-100) of the same molecule?
Its EC50 is 405 nM.

Which results are given for `CCOC(=O)c1c(C)nn2c(=O)cc(-c3ccc(Oc4ccccc4)cc3)[nH]c12` [Example 28, Ethyl 2-methyl-7-oxo-5-(4-phenoxyphenyl)-4,7-dihydropyrazolo[1,5-a]pyrimidine-3-carboxylate]?
EC50 (TEAD2 YAP50-100): 3570 nM; EC50 (TEAD3 YAP50-100): 393 nM

How did the EC50 (TEAD2 YAP50-100) turn out when `CCOC(=O)c1cnn2c(=O)cc(-c3ccc(C4CCCC4)cc3)[nH]c12` [Example 2, Ethyl 5-(4-cyclopentylphenyl)-7-oxo-4,7-dihydropyrazolo[1,5-a]pyrimidine-3-carboxylate] was run?
The EC50 was 120 nM.

What about the EC50 (TEAD3 YAP50-100) of the same molecule?
The EC50 was 19 nM.

What does the source list for `C[C@H]1[C@@H](CF)CN1C(=O)c1cnn2c(=O)cc(-c3ccc(C4CCCCC4)cc3)[nH]c12` (single isomer, unassigned) [Example 45]?
EC50 (TEAD2 YAP50-100): 8 nM; EC50 (TEAD3 YAP50-100): 43 nM

Which EC50 (TEAD2 YAP50-100) does the source give for `CN(CCO)C(=O)c1cnn2c(=O)cc(-c3ccc(C4CCCCC4)cc3)[nH]c12` [Example 5, 5-(4-cyclohexylphenyl)-N-(2-hydroxyethyl)-N-methyl-7-oxo-4,7-dihydropyrazolo[1,5-a]pyrimidine-3-carboxamide] here?
Its EC50 is 1100 nM.

And the EC50 (TEAD3 YAP50-100)?
The EC50 was 567 nM.

Which results are given for `CCNC(=O)c1cnn2c(=O)cc(-c3ccc(Oc4ccccc4)cc3)[nH]c12` [Example 17, N-Ethyl-7-oxo-5-(4-phenoxyphenyl)-4,7-dihydropyrazolo[1,5-a]pyrimidine-3-carboxamide]?
EC50 (TEAD2 YAP50-100): 55 nM; EC50 (TEAD3 YAP50-100): 5000 nM

What does the source list for `O=C(c1cnn2c(=O)cc(-c3ccc(-c4ccccc4)cc3)[nH]c12)N1CCC1` [Example 35, 5-([1,1′-Biphenyl]-4-yl)-3-(azetidine-1-carbonyl)pyrazolo[1,5-a]pyrimidin-7(4H)-one]?
EC50 (TEAD2 YAP50-100): 1630 nM; EC50 (TEAD3 YAP50-100): 95 nM

What does the source list for `CCOC(=O)c1cnn2c(=O)cc(-c3ccc(OC4CCCCC4)cc3)[nH]c12` [Example 13, Ethyl 5-(4-(Cyclohexyloxy)phenyl)-7-oxo-4,7-dihydropyrazolo[1,5-a]pyrimidine-3-carboxylate]?
EC50 (TEAD2 YAP50-100): 793 nM; EC50 (TEAD3 YAP50-100): 66 nM

For `O=C(c1cnn2c(=O)cc(-c3ccc(C4CCCCC4)cc3)[nH]c12)N1CC[C@@H]1CF` [Example 43, (R)-5-(4-cyclohexylphenyl)-3-(2-(fluoromethyl)azetidine-1-carbonyl)pyrazolo[1,5-a]pyrimidin-7(4H)-one], which EC50 (TEAD2 YAP50-100) is on record?
The EC50 was 22.5 nM.

And the EC50 (TEAD3 YAP50-100)?
The EC50 was 28 nM.
